# From patent US20240000872A1, “NOVEL BACTERIOPHAGE THAT LYSES ACINETOBACTER GENUS BACTERIA HAVING RESISTANCE TO ANTIBIOTICS” (priority 2020, published 2024)
# Tested on: Acinetobacter baumannii strains
# Assay: Antibiotic susceptibility test (CLSI disk diffusion test method, read per CLSI 2016)
# Assay type: cell-based
# Design: antibiotic susceptibility test value / susceptibility test value (number given before S/I/R) / antibiotic susceptibility value: unit not given here
# Protocol: Strain identification was performed using a kit such as AT 32 GN system (bioMérieux, Marcy l'Etoile, France). […] In Table 2 below, S, I, and R are the results obtained by evaluating susceptibility to the antibacterial agents, in which ‘S’ means susceptible, ‘I’ means intermediate, and ‘R’ means resistant.
# Strain identification was performed using a kit such as ATB 32 GN system (bioMédrieux, Marcy l'Etoile, France). […] In Table 6 below, S, I, and R are the results obtained by evaluating susceptibility to the antibacterial agents, in which ‘S’ means susceptible, ‘I’ means intermediate, and ‘R’ means resistant.
# Strain identification was performed using a kit such as ATB 32 GN system (bioMérieux, Marcy l'Etoile, France). […] In Table 10 below, S, I, and R are the results obtained by evaluating susceptibility to the antibacterial agents, in which ‘S’ means susceptible, T means intermediate, and ‘R’ means resistant.
substance,measurement,setting,value
ampicillin-sulbactam,antibiotic susceptibility value,host strain YMC16/01/R123,32
same,susceptibility category (S/I/R),host strain YMC16/01/R123,R
same,susceptibility test value (number given before S/I/R),host strain YMC16/01/R123,32
same,antibiotic susceptibility S/I/R,host strain YMC16/01/R198,S
same,antibiotic susceptibility value,host strain YMC16/01/R198,8
same,susceptibility category (S/I/R),host strain YMC16/01/R198,S
same,susceptibility test value (number given before S/I/R),host strain YMC16/01/R198,8
same,antibiotic susceptibility value,host strain YMC16/01/R353,16
same,susceptibility category (S/I/R),host strain YMC16/01/R353,I
same,susceptibility test value (number given before S/I/R),host strain YMC16/01/R353,16
same,antibiotic susceptibility S/I/R,host strain YMC16/01/R380,R
same,antibiotic susceptibility value,host strain YMC16/01/R380,32
same,susceptibility category (S/I/R),host strain YMC16/01/R380,R
same,susceptibility test value (number given before S/I/R),host strain YMC16/01/R380,32
same,antibiotic susceptibility S/I/R,host strain YMC16/01/R397,R
same,antibiotic susceptibility value,host strain YMC16/01/R397,32
same,susceptibility category (S/I/R),host strain YMC16/01/R397,R
same,susceptibility test value (number given before S/I/R),host strain YMC16/01/R397,32
same,antibiotic susceptibility value,host strain YMC16/01/R405,16
same,susceptibility category (S/I/R),host strain YMC16/01/R405,I
same,susceptibility test value (number given before S/I/R),host strain YMC16/01/R405,16
same,antibiotic susceptibility S/I/R,host strain YMC16/03/R4461,S
same,antibiotic susceptibility value,host strain YMC16/03/R4461,4
same,susceptibility category (S/I/R),host strain YMC16/03/R4461,S
same,susceptibility test value (number given before S/I/R),host strain YMC16/03/R4461,4
same,antibiotic susceptibility value,host strain YMC16/05/R2210,16
same,susceptibility category (S/I/R),host strain YMC16/05/R2210,I
same,susceptibility test value (number given before S/I/R),host strain YMC16/05/R2210,16
same,antibiotic susceptibility value,host strain YMC16/07/R2512,16
same,susceptibility category (S/I/R),host strain YMC16/07/R2512,I
same,susceptibility test value (number given before S/I/R),host strain YMC16/07/R2512,16
same,antibiotic susceptibility S/I/R,host strain YMC16/09/R2471,R
same,antibiotic susceptibility value,host strain YMC16/09/R2471,32
same,susceptibility category (S/I/R),host strain YMC16/09/R2471,R
same,susceptibility test value (number given before S/I/R),host strain YMC16/09/R2471,32
same,antibiotic susceptibility value,host strain YMC16/10/R2537,16
same,susceptibility category (S/I/R),host strain YMC16/10/R2537,I
same,susceptibility test value (number given before S/I/R),host strain YMC16/10/R2537,16
same,antibiotic susceptibility S/I/R,host strain YMC16/12/B11422,R
same,antibiotic susceptibility value,host strain YMC16/12/B11422,32
same,susceptibility category (S/I/R),host strain YMC16/12/B11422,R
same,susceptibility test value (number given before S/I/R),host strain YMC16/12/B11422,32
same,antibiotic susceptibility S/I/R,host strain YMC16/12/B11449,R
same,antibiotic susceptibility value,host strain YMC16/12/B11449,32
same,susceptibility category (S/I/R),host strain YMC16/12/B11449,R
same,susceptibility test value (number given before S/I/R),host strain YMC16/12/B11449,32
same,antibiotic susceptibility value,host strain YMC16/12/B13325,16
same,susceptibility category (S/I/R),host strain YMC16/12/B13325,I
same,susceptibility test value (number given before S/I/R),host strain YMC16/12/B13325,16
same,antibiotic susceptibility S/I/R,host strain YMC16/12/P503,R
same,antibiotic susceptibility value,host strain YMC16/12/P503,32
same,susceptibility category (S/I/R),host strain YMC16/12/P503,R
same,susceptibility test value (number given before S/I/R),host strain YMC16/12/P503,32
same,antibiotic susceptibility S/I/R,host strain YMC16/12/R4637,R
same,antibiotic susceptibility value,host strain YMC16/12/R4637,32
same,susceptibility category (S/I/R),host strain YMC16/12/R4637,R
same,susceptibility test value (number given before S/I/R),host strain YMC16/12/R4637,32
same,antibiotic susceptibility S/I/R,host strain YMC17/01/B8053,S
same,antibiotic susceptibility value,host strain YMC17/01/B8053,8
same,susceptibility category (S/I/R),host strain YMC17/01/B8053,S
same,susceptibility test value (number given before S/I/R),host strain YMC17/01/B8053,8
same,antibiotic susceptibility value,host strain YMC17/01/B10087,16
same,susceptibility category (S/I/R),host strain YMC17/01/B10087,I
same,susceptibility test value (number given before S/I/R),host strain YMC17/01/B10087,16
same,antibiotic susceptibility value,host strain YMC17/01/B12075,16
same,susceptibility category (S/I/R),host strain YMC17/01/B12075,I
same,susceptibility test value (number given before S/I/R),host strain YMC17/01/B12075,16
same,antibiotic susceptibility S/I/R,host strain YMC17/01/B13454,R
same,antibiotic susceptibility value,host strain YMC17/01/B13454,32
same,susceptibility category (S/I/R),host strain YMC17/01/B13454,R
same,susceptibility test value (number given before S/I/R),host strain YMC17/01/B13454,32
same,antibiotic susceptibility value,host strain YMC17/01/P518,16
same,susceptibility category (S/I/R),host strain YMC17/01/P518,I
same,susceptibility test value (number given before S/I/R),host strain YMC17/01/P518,16
same,antibiotic susceptibility S/I/R,host strain YMC17/01/R2812,R
same,antibiotic susceptibility value,host strain YMC17/01/R2812,32
same,susceptibility category (S/I/R),host strain YMC17/01/R2812,R
same,susceptibility test value (number given before S/I/R),host strain YMC17/01/R2812,32
same,antibiotic susceptibility S/I/R,host strain YMC17/02/B14,R
same,antibiotic susceptibility value,host strain YMC17/02/B14,32
same,susceptibility category (S/I/R),host strain YMC17/02/B14,R
same,susceptibility test value (number given before S/I/R),host strain YMC17/02/B14,32
same,antibiotic susceptibility value,host strain YMC17/02/B87,16
same,susceptibility category (S/I/R),host strain YMC17/02/B87,I
same,susceptibility test value (number given before S/I/R),host strain YMC17/02/B87,16
same,antibiotic susceptibility S/I/R,host strain YMC17/02/B721,R
same,antibiotic susceptibility value,host strain YMC17/02/B721,32
same,susceptibility category (S/I/R),host strain YMC17/02/B721,R
same,susceptibility test value (number given before S/I/R),host strain YMC17/02/B721,32
same,antibiotic susceptibility S/I/R,host strain YMC17/02/B4039,R
same,antibiotic susceptibility value,host strain YMC17/02/B4039,32
same,susceptibility category (S/I/R),host strain YMC17/02/B4039,R
same,susceptibility test value (number given before S/I/R),host strain YMC17/02/B4039,32
same,antibiotic susceptibility S/I/R,host strain YMC17/02/B4520,R
same,antibiotic susceptibility value,host strain YMC17/02/B4520,32
same,susceptibility category (S/I/R),host strain YMC17/02/B4520,R
same,susceptibility test value (number given before S/I/R),host strain YMC17/02/B4520,32
same,antibiotic susceptibility S/I/R,host strain YMC17/02/B4864,S
same,antibiotic susceptibility value,host strain YMC17/02/B4864,2
same,susceptibility category (S/I/R),host strain YMC17/02/B4864,S
same,susceptibility test value (number given before S/I/R),host strain YMC17/02/B4864,2
same,antibiotic susceptibility value,host strain YMC17/02/B8414,16
same,susceptibility category (S/I/R),host strain YMC17/02/B8414,I
same,susceptibility test value (number given before S/I/R),host strain YMC17/02/B8414,16
same,antibiotic susceptibility value,host strain YMC17/02/P523,16
same,susceptibility category (S/I/R),host strain YMC17/02/P523,I
same,susceptibility test value (number given before S/I/R),host strain YMC17/02/P523,16
same,antibiotic susceptibility S/I/R,host strain YMC17/02/R541,R
same,antibiotic susceptibility value,host strain YMC17/02/R541,32
same,susceptibility category (S/I/R),host strain YMC17/02/R541,R
same,susceptibility test value (number given before S/I/R),host strain YMC17/02/R541,32
same,antibiotic susceptibility S/I/R,host strain YMC17/02/R2392,R
same,antibiotic susceptibility value,host strain YMC17/02/R2392,32
same,susceptibility category (S/I/R),host strain YMC17/02/R2392,R
same,susceptibility test value (number given before S/I/R),host strain YMC17/02/R2392,32
same,antibiotic susceptibility value,host strain YMC17/03/B4730,16
same,susceptibility category (S/I/R),host strain YMC17/03/B4730,I
same,susceptibility test value (number given before S/I/R),host strain YMC17/03/B4730,16
same,antibiotic susceptibility S/I/R,host strain YMC17/03/B5000,R
same,antibiotic susceptibility value,host strain YMC17/03/B5000,32
same,susceptibility category (S/I/R),host strain YMC17/03/B5000,R
same,susceptibility test value (number given before S/I/R),host strain YMC17/03/B5000,32
same,antibiotic susceptibility S/I/R,host strain YMC17/03/P971,S
same,antibiotic susceptibility value,host strain YMC17/03/P971,8
same,susceptibility category (S/I/R),host strain YMC17/03/P971,S
same,susceptibility test value (number given before S/I/R),host strain YMC17/03/P971,8
same,antibiotic susceptibility value,host strain YMC17/03/R348,16
same,susceptibility category (S/I/R),host strain YMC17/03/R348,I
same,susceptibility test value (number given before S/I/R),host strain YMC17/03/R348,16
same,antibiotic susceptibility S/I/R,host strain YMC17/03/R585,R
same,antibiotic susceptibility value,host strain YMC17/03/R585,32
same,susceptibility category (S/I/R),host strain YMC17/03/R585,R
same,susceptibility test value (number given before S/I/R),host strain YMC17/03/R585,32
same,antibiotic susceptibility S/I/R,host strain YMC17/03/R1888,S
same,antibiotic susceptibility value,host strain YMC17/03/R1888,8
same,susceptibility category (S/I/R),host strain YMC17/03/R1888,S
same,susceptibility test value (number given before S/I/R),host strain YMC17/03/R1888,8
same,antibiotic susceptibility value,host strain YMC17/03/R3279,16
same,susceptibility category (S/I/R),host strain YMC17/03/R3279,I
same,susceptibility test value (number given before S/I/R),host strain YMC17/03/R3279,16
same,antibiotic susceptibility value,host strain YMC17/03/R4077,16
same,susceptibility category (S/I/R),host strain YMC17/03/R4077,I
same,susceptibility test value (number given before S/I/R),host strain YMC17/03/R4077,16
same,antibiotic susceptibility value,host strain YMC17/03/R4607,16
same,susceptibility category (S/I/R),host strain YMC17/03/R4607,I
same,susceptibility test value (number given before S/I/R),host strain YMC17/03/R4607,16
same,antibiotic susceptibility value,host strain YMC17/04/R488,16
same,susceptibility category (S/I/R),host strain YMC17/04/R488,I
same,susceptibility test value (number given before S/I/R),host strain YMC17/04/R488,16
same,antibiotic susceptibility value,host strain YMC17/04/R640,16
same,susceptibility category (S/I/R),host strain YMC17/04/R640,I
same,susceptibility test value (number given before S/I/R),host strain YMC17/04/R640,16
same,antibiotic susceptibility value,host strain YMC/17/05/R1095,16
same,susceptibility category (S/I/R),host strain YMC/17/05/R1095,I
same,susceptibility test value (number given before S/I/R),host strain YMC/17/05/R1095,16
